Results reported in patent US20030144174A1, “METHODS FOR IDENTIFYING COMPOUNDS USEFUL FOR THE REGULATION OF BODY WEIGHT AND ASSOCIATED CONDITIONS” (priority 1998, published 2003).
Entries after “also recorded” stand apart in the source; their conditions may differ.

How the values were obtained:
Format in all cases: in vivo, mouse
ob/ob mutants [1] = test: Weight gain and food intake in ob/ob mutants given leptin, MSH analog or both (Example 5, FIGS. 8 and 9)
Experimental: Leptin deficient (ob/ob) mutants show both hyperphagia and “increased metabolic efficiency” as witnessed by their ability to gain weight even when pair-fed with normal congenic controls. To determine the effects of leptin and MSH on food intake and weight gain, four sets of ob/ob mutants were treated with leptin, an MSH analog, both together, or vehicle alone. The MSH analog [Ac-Cys^4, D-Phe^7, Cys^10] α-MSH (4-13) was purchased from Peninsula Laboratories (Belmont, Calif.). Mice were treated with daily injections of 7 micrograms of each, both or neither.

[2] = tested on: POMC homozygous mutant female mice; test: Daily intraperitoneal α-MSH analog in POMC homozygous mutant mice: body weight, food intake, coat (Example 2)
Experimental: (§1) To test initially for the effect of peripheral melanocortins on weight change, we selected the stable agonist [Ac-Cys^4, D-Phe^7, Cys^10] α-MSH (4-13) (described in Cody et al., 1985, J. Med. Chem. 28, 583-588; incorporated herein by reference in its entirety). Briefly, [Ac-Cys^4,D-Phe^7, Cys^10] α-MSH (4-13) amide, having the cysteines connected by a disulfide bridge, was obtained from Peninsula Laboratories, CA. Lyophilized powder was dissolved in water at 1 mg/ml, which was diluted in PBS to 10 μg/mL. During the experiments, mice were maintained on a normal 12 h/12 h light/dark cycle with food and water ad libitum. Mice were fed standard laboratory rodent diet (#5001).
(§2) In order to see whether the α-MSH analog has an effect on food intake, we compared weight change and food intake in these mice for one week (see bars in FIGS. 4A and 4B) under MSH analog treatment and after MSH analog treatment was stopped (FIGS. 4C and 4D). During one week under MSH analog treatment mutant mice lost 0.5 g, while wildtype littermates gained 0.3 g; the food intake during this time was equivalent in both groups (20.7 g in wildtypes, and 22.7 g in mutants).
An effect of MSH could also be seen on coat pigmentation. […] Yellow coat pigmentation gradually reappeared after MSH treatment was terminated (data not shown).

wildtype female mice = test: Daily intraperitoneal α-MSH analog in wildtype littermates: body weight, food intake (Example 2); details: for weight loss in wildtype littermates: 1 microgram i.p. daily, 16-day treatment
Experimental: as §1, §2

obese lep^ob/ob mice = test: Total weight change in obese lep ob/ob mice given leptin, α-MSH analog or both (Example 4, FIG. 6); details: 3 μg of each compound i.p. once daily; lep ob/ob mice aged 2 months; compared to untreated controls
Experimental: To assess a more general effect of peripheral melanocortin on adipocytes, another genetic form of obesity, in lep^ob/ob mice, was treated with the α-MSH analog. In this experiment, the mice received leptin or the α-MSH analog alone, and in combination. Briefly, obese lep^ob/ob mice at age 2 months (2 per group) received daily either: (1) 3 μg of α-MSH analog (described in Examples 2 and 3 above); (2) 3 μg of recombinant mouse leptin; (3) 3 μg of α-MSH analog and 3 μg of recombinant mouse leptin in combination; or (4) saline. The compounds were delivered intraperitoneally once daily, 1-2 hours before the onset of darkness.

POMC null mutant mice = test: Weight change and food intake by diet and MSH analog treatment, POMC null mutant mice (Example 3, Table 1)
Experimental: (§3) P values were determined by ANOVA. If the major component of weight regulation through the melanocortinergic pathway was the regulation of feeding behavior, the observed changes in body weight in POMC null mutant mice should be paralleled by a similar pattern in food uptake. This, however, was not observed (FIGS. 5B and 5D and Table 1).

wildtype mice = test: Weight change and food intake by diet and MSH analog treatment, wildtype mice (Example 3, Table 1); details: MSH analog i.p. 1 or 2 μg once daily
Experimental: as §3

ob/ob mutants [3] = test: Core temperature of ob/ob mutants exposed to 4° C. (Example 5, FIG. 10); details: 7 micrograms; 5 hours without food, then 4° C. for 65 minutes; versus vehicle treated ob/ob
Experimental: In 1977, the decreased ability of ob/ob mutants to maintain body temperature at 4° C. was noted. This preceded the onset of obesity in these mice. In view of the evidence that MSH regulates adipocyte metabolism, the present inventors hypothesized that the low levels of circulating MSH in leptin deficient (ob/ob) mutants was responsible for the impaired thermal regulation. To test this, ob/ob mutants were injected with 7 micrograms of MSH analog or vehicle only as described above. The mice were left without food for 5 hours and then exposed to 4° C. for 65 minutes. Their core temperatures were measured periodically by transfer to a coldroom (4° C.) where core temperatures were measured using a digital thermometer fitted with a rectal probe (Atkins Technical Inc., Gainesville, Fla.). […] As the mice had no opportunity to eat between injection of the MSH analog and the cold challenge, food intake cannot be responsible for the altered thermal regulation.

[4] = tested on: ob/ob mutant mice (C57BL/6J-Lep^ob); test: Circulating MSH levels by RIA in ob/ob mutants treated with leptin (Example 5, FIG. 7); details: leptin 7 microgram/day i.p., two hours after the tenth daily injection
Experimental: To test the inductive ability of leptin on circulating MSH levels, ob/ob mutants (ob/ob mutant mice (C57BL/6J-Lep^ob) and congenic controls were purchased from the Jackson Laboratory, Bar Harbor, Me.) were treated with leptin (7 microgram/day) or with vehicle alone (Murine recombinant leptin was kindly provided by Dr. A. F. Parlow through the National Hormone and Pituitary Program (NHPP); hormones were diluted to 70 micrograms per milliliter in PBS; mice were injected intraperitoneally with 0.1 mL). Two hours after the tenth daily injection, blood samples were drawn from the retro-orbital sinus and analyzed for MSH levels by RIA following the manufacturer's instructions (Peninsula Laboratories, Belmont, Calif.).

[5] = daily injections of 7 micrograms, ob/ob mutants
[6] = both genotypes on standard diet & MSH analog treatment
[7] = mutant mice, MSH analog i.p. 1 or 2 μg once daily

## [Ac-Cys^4, D-Phe^7, Cys^10] α-MSH (4-13) [MSH analog]
ob/ob mutants [1]; MSH analog together with a leptin dose sufficient to induce normal MSH levels, ob/ob mice
  supplementing the weight reducing effect of leptin: inability of peripheral MSH analog to supplement the weight reducing effect
ob/ob mutants [1]; [5]
  effect on weight gain compared with effect on food intake: greater on weight gain than on food intake
  weight gain: effectively decreased weight gain; also recorded: decreases weight gain
[2]; 1 microgram (~1 nmol) i.p. daily, mutant female mice, listed as MSH-agonist
  weight loss by 2 weeks: 46 % of excess weight
[2]; 1 microgram (~1 nmol) i.p. daily, mutant female mice, listed as stable α-MSH agonist
  weight loss by 2 weeks: over 40 % of excess weight
[2]; 1 microgram (~1 nmol) i.p. daily, mutant female mice, within one week
  weight loss within one week: 38 % of excess weight
[2]; after the 16-day treatment ended
  time until mutant mice started to gain weight after MSH injections were stopped: about 10 days
[2]; mice treated for two weeks
  coat pigmentation: lost their yellowish tinge
[2]; mutant mice, second week of treatment
  weight lost during one week under MSH analog treatment: 0.5 g
[2]; mutant mice, third week after termination
  weight gained in one week after MSH analog treatment had been stopped for two weeks: 1.7 g
[2]; mutants, second week of treatment
  food intake during one week under MSH analog treatment: 22.7 g
[2]; mutants, third week after termination
  food intake in one week after MSH analog treatment had been stopped for two weeks: 35.7 g
Wildtype female mice; listed as MSH-agonist
  weight loss in wildtype littermates: no significant weight loss
Wildtype female mice; listed as stable α-MSH agonist
  weight loss in wildtype littermates: did not lose significant weight
Wildtype female mice; wildtype littermates, second week of treatment
  weight gained during one week under MSH analog treatment: 0.3 g
Wildtype female mice; wildtype littermates, third week after termination
  weight gain in one week after MSH analog treatment had been stopped for two weeks: 0.3 g
Wildtype female mice; wildtypes, second week of treatment
  food intake during one week under MSH analog treatment: 20.7 g
Wildtype female mice; wildtypes, third week after termination
  food intake in one week after MSH analog treatment had been stopped for two weeks: 24.2 g
Obese lep^ob/ob mice
  total weight change over a period of 10 days: slowed weight gain by almost half
POMC null mutant mice; [6]
  food intake, wildtype v. mutant: ↑
  weight change, wildtype v. mutant: ↓
POMC null mutant mice; [7]
  food intake, standard diet v. standard diet & MSH analog treatment: decreases food intake and ↓
  weight change, standard diet v. standard diet & MSH analog treatment: lose excess weight and ↓
Wildtype mice
  food intake, standard diet v. standard diet & MSH analog treatment: decreases food intake and ↓
  weight change, standard diet v. standard diet & MSH analog treatment: completely capable of maintaining their body weight constant and ←→
ob/ob mutants [3]
  core temperature during exposure to 4° C.: maintained their core temperature much better; also recorded: increases thermal homeostasis

B1: leptin: recombinant mouse leptin, product of the ob gene; Example 5 material provided through the NHPP (protein, UniProt P41160 22-167, looked up)
Leptin: VPIQKVQDDTKTLIKTIVTRINDISHTQSVSAKQRVTGLDFIPGLHPILSLSKMDQTLAVYQQVLTSLPSQNVLQIANDLENLRDLLHLLAFSKSCSLPQTSGLQKPESLDGVLEASLYSTEVVALSRLQGSLQDILQQLDVSPEC
ob/ob mutants [1]; [5]
  weight gain: effectively decreased weight gain
[4]
  circulating MSH levels: approached those found in normal control mice; also recorded: induces almost normal levels of circulating MSH
Obese lep^ob/ob mice
  total weight change over a period of 10 days: little effect on preventing further weight gain
